Measured values from a melting point compilation (Tetko et al.; mined from patent text by program, amines drawn as free bases though some values may be those of a salt).

| melting point [°C] | SMILES |
| --- | --- |
| 107 to 108 | COC(=O)C(=CNc1ccc(F)c(F)c1OCC(C)O)C(=O)OC (centres undefined) |
| 125 to 127 | CCOC(=O)c1c2ccc(CC(=O)NOCCCN(CC)CC)ccc-2c(C(=O)OCC)c1N |
| 130 | CCCCCCCC(=O)c1ccc(OC(C)=O)c(C(=O)O)c1 |
| 44.5 to 45 | COC(=O)CCCc1nc(-c2ccc(C)cc2)oc1C(F)(F)F |
| 129 | COc1ccc(S(=O)(=O)N(CC(N)=O)c2ccc(Cl)cc2C(O)c2ccccc2C(F)(F)F)cc1OC (centres undefined) |
| 92 to 94 | CCC(=O)Oc1ccc2c(c1)C(=O)N(C(=O)CC)C(C(Cl)(Cl)Cl)O2 (centres undefined) |
| 220 to 225 | CC(C(=O)O)S(=O)(=O)c1ccc2c(-c3ccccc3F)noc2c1Cl (centres undefined) |
| 109 to 110 | Cc1oc(-c2ccccc2)nc1COc1ccc(Cn2cc(CCCCC(=O)O)c(-c3ccccc3)n2)cc1 |
| 160 to 162 | CN=C1CN(c2ccccc2)C(=O)N1C |
| 208 to 210 | COCCNc1nc(-n2ccnc2)nc2ccc(C(C)=O)cc12 |
| 186 to 188 | CN(C(=O)Nc1ccc(Cl)cc1)n1cnc2ccccc2c1=O |
| 92 | CCCOc1nc(O)ns1 |
| 224 | CC(=O)N1C(=O)N(c2cc(Cl)cc(Cl)c2)C(=O)[C@]12CN(Cc1ccccc1)C[C@H]2c1ccc(C#N)cc1 (relative stereo) |
| 76 to 77 | CC(=O)C1(COC(=O)Oc2ccccc2)CC2C=CC1C2 (centres undefined) |
| 268 to 270 | CCN1c2c(oc(=O)n(-c3ccccn3)c2=O)-c2ccccc2S1(=O)=O |
| 85 to 86 | CNC(=S)NS(=O)(=O)c1cc(CCNC(=O)c2cc(Cl)ccc2OC)ccc1-c1ccccn1 |
| 243 to 244 | Cc1cc(Nc2cncc(Nc3cccc(NC(=O)c4ccccc4)c3)n2)n[nH]1 |
| 111 to 114 | COc1cc(C=CC(=O)c2ccc(O)c(OC)c2)ccc1O |
| 158 to 161 | O=C1NN=C(c2cccc(Br)c2)CC1O (centres undefined) |
| 147 to 148 | COc1nn(-c2ccc(C=O)cc2)nc1Cl |
| 250 | CCn1c(N)c(C(=O)NC)c(=O)c2cnc(-c3ccc(NC(=O)NCc4cccnc4)cc3)nc21 |

Further lines, the compound ahead of its results:

| SMILES | melting point [°C] |
| --- | --- |
| CC(C)(C)OC(=O)N1CCC2(CC1)CC(c1ncccc1Cl)=NO2 | 97 to 102 |
| O=C1CCc2ncc3cc(Cl)c(Cl)cc3c2N1 | 350 |
| N#CC(C#N)CC(=O)c1ccc(Cl)c(Cl)c1 | 142 to 145 |
| CCCc1[nH]cnc1C(=O)OCC | 175 to 179 |
| COc1ccc(-c2cnc3cc4cn(CCOC(C)=O)nc4cc3n2)cc1F | 175 to 178 |
| CCc1cc2c(s1)-n1c(C)nnc1C(CCC(=O)O)N=C2c1ccc(Cl)cc1 (centres undefined) | 210 to 212 |
| CCOC(=O)C1=Cc2cc(C#N)ccc2NC1C(F)(F)F (centres undefined) | 211 to 212 |
| CCOc1c(OC)cc(C(=O)OC)c(-c2c(C(=O)OC)cc(OC)c3c2OCO3)c1OCC | 107 to 108 |
| Cc1ccc(-c2ccc(OC3SCC(O)C(O)C3O)cn2)cn1 (centres undefined) | 228 |
| O=C(Nc1ccccc1C(=O)O)c1nnc(S)o1 | 236 to 237 |
| Nc1nc(=O)n(CCCCn2cncn2)cc1F | 197 to 200 |
| COC(=O)C(Cc1ccc(OCCN(C)c2nc3ccccc3o2)cc1)Sc1ccc(C)cc1 (centres undefined) | 88.6 to 90.1 |
| Cc1nc(NC(=O)c2cnn3c(C(F)F)cc(-c4ccc(C(F)(F)F)cc4)nc23)sc1S(=O)(=O)NC(C)(CO)CO | 248 |
| CC(Oc1cccc2c1C(=O)N(C1CCC(=O)NC1=O)C2=O)c1ccc2ccccc2c1 (centres undefined) | 174 to 176 |
| COc1ccc(Cl)cc1N1C(=O)NC(=O)C1c1ccccc1 (centres undefined) | 200 |
| COc1ccc(OC)c(C(=O)N2CCc3cc(O)ccc3C2)c1 | 61 to 86 |
| Cc1cc(C(=O)N[C@@H]2CCc3cccc(N4CCN(C)CC4)c3C2)ccc1N1CCOCC1 | 172 to 175 |
| COc1ccc(CN2C(=O)C(C)(c3cc(C(=O)N4CCCCC4C(=O)N(C)CC(F)(F)F)ccc3Cl)c3cc(Cl)ccc32)c(OC)c1 (centres undefined) | 99 |
| O=C1Nc2ccc(C(F)(F)F)cc2C1c1ncnc2nn(C3CCCCC3)cc12 (centres undefined) | > 300 |
| Cn1ccc(N)cc1=O | 200 to 202 |
| CS(=O)(=O)NCCn1nnnc1S | 131 to 132 |
| COc1ccc(-c2csc(Nc3cc4ccccc4cn3)n2)cc1 | 224 to 228 |
| CCOC(=O)Cn1c(-c2ccc(OC)c(OC)c2)cc(=Nc2c(C)cc(C)cc2C)n(C)c1=O | 112 to 113 |
| O=C(CC(F)=C(F)F)NNC(=O)CC(F)=C(F)F | 191 to 193 |
| O=S(=O)(CC(O)(CCl)c1ccccc1)c1ccccc1 (centres undefined) | 110 |
| CCCN(CCC)CCCC1CCN(CCNC(=O)N2c3ccccc3C(=O)Nc3cccnc32)CC1 | 169 to 170 |
| CC(C(=O)O)c1ccc(-c2ccc(Br)cc2F)cc1 (centres undefined) | 137 to 139 |
| Cc1c(F)c(N2CCN(C=O)C(C)C2)cc2c1c(=O)c(C=O)cn2C1CC1 (centres undefined) | 258 to 260 |
